According to ChEMBL document CHEMBL1136268, “Retinoic acid receptor ligands based on the 6-cyclopropyl-2,4-hexadienoic acid” (Bioorg Med Chem Lett, 2003):
Numbering of substitutions follows the chain as printed.

Key:
[1] = biological target: T1, Retinoic acid receptor gamma (Homo sapiens, UniProt P13631); test: Inhibition of [3H]ATRA binding to human Retinoic acid receptor RAR gamma
T1 sequence (P13631 whole entry): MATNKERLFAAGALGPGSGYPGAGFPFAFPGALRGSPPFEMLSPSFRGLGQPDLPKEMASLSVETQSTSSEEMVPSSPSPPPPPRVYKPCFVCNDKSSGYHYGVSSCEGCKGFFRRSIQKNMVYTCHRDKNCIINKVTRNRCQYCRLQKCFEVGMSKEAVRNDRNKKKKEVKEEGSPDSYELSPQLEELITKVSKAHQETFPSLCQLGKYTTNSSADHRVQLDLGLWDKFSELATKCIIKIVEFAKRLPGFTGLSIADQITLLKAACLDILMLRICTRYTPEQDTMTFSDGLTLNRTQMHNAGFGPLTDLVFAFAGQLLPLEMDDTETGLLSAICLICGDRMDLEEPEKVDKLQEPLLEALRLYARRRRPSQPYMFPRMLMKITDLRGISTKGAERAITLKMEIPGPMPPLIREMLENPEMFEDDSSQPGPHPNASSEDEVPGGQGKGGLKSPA

[2] = biological target: T2, Retinoic acid receptor RXR-alpha (Homo sapiens, UniProt P19793); test: Inhibition of [3H]9-cis-RA binding to human Retinoid X receptor RXR alpha
T2 sequence (P19793 whole entry): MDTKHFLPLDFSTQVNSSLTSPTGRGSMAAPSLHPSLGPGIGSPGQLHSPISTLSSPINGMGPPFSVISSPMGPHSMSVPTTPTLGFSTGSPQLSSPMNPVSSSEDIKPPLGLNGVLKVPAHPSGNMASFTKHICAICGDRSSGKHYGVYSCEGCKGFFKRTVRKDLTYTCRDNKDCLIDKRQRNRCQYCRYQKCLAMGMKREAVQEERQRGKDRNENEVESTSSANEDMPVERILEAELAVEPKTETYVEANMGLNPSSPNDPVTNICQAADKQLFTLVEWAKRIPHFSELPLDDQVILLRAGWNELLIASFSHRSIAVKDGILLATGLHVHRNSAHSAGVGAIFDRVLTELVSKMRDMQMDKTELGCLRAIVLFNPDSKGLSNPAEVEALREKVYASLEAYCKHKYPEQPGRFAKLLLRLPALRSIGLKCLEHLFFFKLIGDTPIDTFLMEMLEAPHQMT

[3] = biological target: T3, Retinoic acid receptor beta (Homo sapiens, UniProt P10826); test: Transcriptional activation in CV-1 cells expressing human Retinoic acid receptor RAR beta; format: cell-based
T3 sequence (P10826 whole entry): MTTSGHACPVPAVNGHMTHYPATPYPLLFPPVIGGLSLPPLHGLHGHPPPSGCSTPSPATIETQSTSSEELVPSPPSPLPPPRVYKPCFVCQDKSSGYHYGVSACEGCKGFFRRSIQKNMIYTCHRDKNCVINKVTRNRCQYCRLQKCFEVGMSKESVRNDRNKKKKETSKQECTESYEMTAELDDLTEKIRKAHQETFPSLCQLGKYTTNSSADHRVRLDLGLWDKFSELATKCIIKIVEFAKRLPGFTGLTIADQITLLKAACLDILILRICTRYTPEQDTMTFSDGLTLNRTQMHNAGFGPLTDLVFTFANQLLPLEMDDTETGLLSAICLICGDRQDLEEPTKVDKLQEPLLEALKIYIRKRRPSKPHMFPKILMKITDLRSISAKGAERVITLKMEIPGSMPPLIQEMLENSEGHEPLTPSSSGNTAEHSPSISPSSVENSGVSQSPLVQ

[4] = biological target: T3, Retinoic acid receptor beta; test: Inhibition of [3H]-ATRA binding to human Retinoic acid receptor RAR beta
[5] = biological target: T4, Retinoic acid receptor RXR-gamma (Mus musculus, UniProt P28705); test: Transcriptional activation in CV-1 cells expressing mouse Retinoid X receptor RXR gamma; format: cell-based
T4 sequence (P28705 whole entry): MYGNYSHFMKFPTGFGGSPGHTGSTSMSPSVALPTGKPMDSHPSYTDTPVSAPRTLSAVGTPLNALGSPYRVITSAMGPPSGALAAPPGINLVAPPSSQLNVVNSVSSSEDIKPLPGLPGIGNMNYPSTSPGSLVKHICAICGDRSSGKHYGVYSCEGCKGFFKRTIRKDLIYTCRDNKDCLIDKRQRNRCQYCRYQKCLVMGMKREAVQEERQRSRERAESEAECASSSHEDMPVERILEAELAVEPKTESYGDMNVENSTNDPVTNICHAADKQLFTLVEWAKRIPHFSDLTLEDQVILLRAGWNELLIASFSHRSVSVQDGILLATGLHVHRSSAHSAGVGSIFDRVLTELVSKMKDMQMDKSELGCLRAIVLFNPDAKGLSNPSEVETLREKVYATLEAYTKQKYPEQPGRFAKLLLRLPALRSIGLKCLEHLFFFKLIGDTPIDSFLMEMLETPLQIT

[6] = biological target: T5, Retinoic acid receptor alpha (Homo sapiens, UniProt P10276); test: Transcriptional activation in CV-1 cells expressing human Retinoic acid receptor RAR alpha; format: cell-based
T5 sequence (P10276 whole entry): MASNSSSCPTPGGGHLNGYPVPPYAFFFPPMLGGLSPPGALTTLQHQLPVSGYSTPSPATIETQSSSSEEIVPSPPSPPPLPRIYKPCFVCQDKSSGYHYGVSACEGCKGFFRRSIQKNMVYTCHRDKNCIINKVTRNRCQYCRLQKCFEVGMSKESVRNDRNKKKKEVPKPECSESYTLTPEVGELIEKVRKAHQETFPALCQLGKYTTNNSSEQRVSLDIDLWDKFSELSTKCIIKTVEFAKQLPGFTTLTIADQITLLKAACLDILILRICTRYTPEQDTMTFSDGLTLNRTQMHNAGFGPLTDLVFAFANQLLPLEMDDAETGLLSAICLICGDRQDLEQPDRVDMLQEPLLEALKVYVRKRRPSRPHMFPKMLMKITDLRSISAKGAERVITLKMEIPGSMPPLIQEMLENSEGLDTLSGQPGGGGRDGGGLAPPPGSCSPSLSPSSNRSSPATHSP

[7] = biological target: T5, Retinoic acid receptor alpha; test: Inhibition of [3H]ATRA binding to human Retinoic acid receptor RAR alpha
[8] = biological target: T2, Retinoic acid receptor RXR-alpha; test: Transcriptional activation in CV-1 cells expressing human Retinoid X receptor RXR-alpha; format: cell-based
[9] = biological target: T6, Retinoic acid receptor RXR-beta (Mus musculus, UniProt P28704); test: Inhibition of [3H]9-cis-RA binding to mouse Retinoid X receptor RXR beta
T6 sequence (P28704 whole entry): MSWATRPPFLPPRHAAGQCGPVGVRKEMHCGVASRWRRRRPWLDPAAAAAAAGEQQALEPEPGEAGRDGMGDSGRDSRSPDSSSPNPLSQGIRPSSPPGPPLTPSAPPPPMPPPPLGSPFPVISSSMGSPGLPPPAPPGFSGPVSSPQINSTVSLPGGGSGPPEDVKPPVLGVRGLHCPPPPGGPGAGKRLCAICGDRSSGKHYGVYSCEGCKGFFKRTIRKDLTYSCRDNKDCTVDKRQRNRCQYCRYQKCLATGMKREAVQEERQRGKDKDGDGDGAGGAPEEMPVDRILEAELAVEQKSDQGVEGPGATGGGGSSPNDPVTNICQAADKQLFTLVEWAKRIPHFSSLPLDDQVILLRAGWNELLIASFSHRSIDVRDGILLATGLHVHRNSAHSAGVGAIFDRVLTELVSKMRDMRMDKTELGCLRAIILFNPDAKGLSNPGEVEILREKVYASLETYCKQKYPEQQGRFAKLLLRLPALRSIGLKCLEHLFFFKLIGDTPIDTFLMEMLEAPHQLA

[10] = biological target: T6, Retinoic acid receptor RXR-beta; test: Transcriptional activation in CV-1 cells expressing mouse Retinoid X receptor RXR beta; format: cell-based
[11] = biological target: T1, Retinoic acid receptor gamma; test: Transcriptional activation in CV-1 cells expressing human Retinoic acid receptor RAR gamma; format: cell-based
[12] = biological target: T7, Retinoic acid receptor RXR-gamma (Homo sapiens, UniProt P48443); test: Inhibition of [3H]-9-cis-RA binding to human Retinoid X receptor RXR gamma
T7 sequence (P48443 whole entry): T4 sequence (P28705 whole entry) with T13A, F15Y, V31A, P34S, S228T, S230G, V258M, S450T

[13] = biological target: T3, Retinoic acid receptor beta; test: Transcriptional activation in CV-1 cells expressing human Retinoic acid receptor RAR beta; Not active; format: cell-based
[14] = biological target: T5, Retinoic acid receptor alpha; test: Transcriptional activation in CV-1 cells expressing human Retinoic acid receptor RAR alpha; Not active; format: cell-based
[15] = biological target: T1, Retinoic acid receptor gamma; test: Transcriptional activation in CV-1 cells expressing human Retinoic acid receptor RAR gamma; Not active; format: cell-based

| Kd [1] | Kd [2] | EC50 [3] | Kd [4] | EC50 [5] | EC50 [6] | Kd [7] | EC50 [8] | Kd [9] | EC50 [10] | EC50 [11] | Kd [12] | EC50 [13] | EC50 [14] | EC50 [15] | Structure (SMILES) |
| --- | --- | --- | --- | --- | --- | --- | --- | --- | --- | --- | --- | --- | --- | --- | --- |
| > 1000 nM | 3 nM | 139 nM | > 1000 nM | 23 nM | 733 nM | > 1000 nM | 30 nM | 8 nM | 19 nM | 391 nM |  |  |  |  | CC(/C=C/CC1(c2cc(C(C)(C)C)cc(C(C)(C)C)c2)CC1)=C\C(=O)O |
|  |  |  |  |  |  |  |  |  |  |  | 8 nM |  |  |  | CC(/C=C/CC1(c2ccc3c(c2)C(C)(C)CCC3(C)C)CC1)=C\C(=O)O |
| > 1000 nM |  |  | > 1000 nM |  |  | > 1000 nM |  |  |  |  | 22 nM | Not Active | Not Active | Not Active | CC(/C=C/CC1(c2cc(C(C)(C)C)cc3c2CCC3(C)C)CC1)=C\C(=O)O |
| > 1000 nM | 16 nM |  |  | 36 nM |  | > 1000 nM | 31 nM | 18 nM | 9 nM |  | 153 nM | Not Active | Not Active | Not Active | CC(/C=C/CC1(c2cc3c(cc2C)C(C)(C)CCC3(C)C)CC1)=C\C(=O)O |
| > 1000 nM |  |  | > 1000 nM | 24 nM |  | > 1000 nM |  | 7 nM | 19 nM |  | 6 nM | Not Active | Not Active | Not Active | CC(/C=C/CC1(c2ccc3c(c2)C(C)(C)CCC3(C)C)CCCC1)=C\C(=O)O |
